One test deals with Myf5 gene transcripts. The test can be described thus: Mice subjected to a high-fat diet: Myf5 transcripts. The class given is in vivo, C57BL/6J mice. Particulars: 5 mg/kg orally; high-fat diet for 6 weeks. As for the experimental part:
(§1) The 20E as comparative compound and the compounds according to the invention (Nos. 51 and 93) were administered orally, at a dose of 5 mg/kg of body weight, to 12-week-old C57BL/6J mice subjected to a high-fat diet for 6 weeks. The effect of the compounds on the weight and the amount of proteins of the Soleus muscle and also the transcripts of genes involved in myogenesis were evaluated.
(§2) Myogenesis, which is the process for forming muscle tissues, is controlled by several myogenic transcription factors which act as end effectors of the signaling cascade and produce transcripts involved in the various stages of development. The roles of the transcription factors have been described in various journals (Sabourin and Rudnicki 2000 and Le Grand and Rudnicki 2007). The Pax7 protein (Paired-box protein 7) maintains a population of satellite cells in quiescence and, with Myf5 (Myogenic factor 5), plays a role in the expansion of activated myoblasts. The MyoD protein (Myoblast Determination protein) appears to determine the differentiation potential of activated myoblasts, and cooperates with myogenin and the MEF2 (Myocyte Enhancer Factor 2) protein to control and bring about differentiation. Finally, MRF4 (Muscle-specific Regulatory Factor 4) is required for hypertrophy, even though it probably plays other roles. […]
(§3) The relative differences in gene expression between treatments are expressed as increase or decrease in the number of cycle times [Ct] compared with the control group, the [Ct] value of each gene having been standardized with the beta-actin gene.
(§4) The in vivo study is carried out by evaluating the effect of 20E as comparative compound and of the molecules according to the invention (Nos. 51 and 93) administered orally, at a dose of 5 mg/kg of body weight, to C57BL/6 mice subjected to a high-fat diet for 6 weeks. The effect of the molecules on the weight and the amount of proteins of the Soleus muscle and also the transcripts of genes involved in myogenesis were evaluated.

A further test deals with myogenin transcripts. In words: Mice subjected to a high-fat diet: myogenin transcripts of the Soleus muscle. The class given is in vivo, C57BL/6J mice. Particulars: 5 mg/kg orally; high-fat diet for 6 weeks; FIG. 5B. The protocol:
as §1, §2, §3, §4

Another test relates to myostatin transcript. In words: Mice subjected to a high-fat diet: myostatin transcript of the Soleus muscle. Conditions: 5 mg/kg orally; high-fat diet for 6 weeks; FIG. 4. The class given is in vivo, C57BL/6J mice. The protocol: as §1
In order to carry out the gene expression analysis, the muscle tissues were homogenized in a Trizol solution (500 μl), and the RNAs were extracted and purified using the phenol/chloroform method. An amount of […] of RNA was used as template for the synthesis of the first cDNA strand using oligo (dT)s as primers and the AMV reverse transcriptase enzyme as described by the supplier (Applied Biosystems 4368814). The q-PCRs were then carried out using a 7900HT machine equipped with a rapid system for real-time detection by PCR (Applied Biosystems) and the standard qPCR program (1 cycle of 95° C. for 15 min, 40 cycles of 95° C. for 15 s and 60° C. for 1 min, a 60-95° C. melt curve for the Sybergreen probes). The experiments are carried out in a Sybergreen SYBR master mix (Applied Biosystems) containing the 100 ng cDNA samples and a set of primers which bind to the two different exons and at a final concentration of 200 nM.
as §3, §4

For test [1], the system named is myostatin gene expression in C2C12 cells. In words: Inhibition of myostatin expression in C2C12 cells (qPCR). The class given is cell-based. Particulars: Mus musculus, percentage myostatin gene expression in cells in contact with the compounds related to control cells, C2C12, 6 h. An outline of the steps: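 C2C12 myoblasts differentiated to myotubes for 5 days in 2% serum, then treated 6 h with compounds in serum-free, low-glucose (1 g/l) DMEM; IGF-1 100 ng/ml as reference. Myostatin mRNA quantified by RT-qPCR, expressed relative to untreated control as R=2^-ΔΔCt.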

For test [2], the system named is Soleus muscle of C57BL/6 mice subjected to a high-fat diet. In words: Mice subjected to a high-fat diet: weight and amount of proteins of the Soleus muscle. Conditions: 5 mg/kg orally; high-fat diet for 6 weeks; compared with the control group; FIG. 3B. The class given is in vivo, C57BL/6J mice. As for the experimental part:
as §1
The amount of proteins is determined by first lysing the muscles sampled in a 0.1N NaOH solution with the FastPrep technique. The proteins are quantified by means of a colorimetric assay derived from the Lowry method.
as §4

Where only a bound is given, the exact number is not on record here.

As to `CCC(CC)C(=O)N(CCOC)C(C)[C@H]1CC[C@@]2(O)C3=CC(=O)[C@@H]4C[C@@H](O)[C@@H](O)C[C@]4(C)C3CC[C@]12C` (stereo partly drawn) [Compound 51, 2-ethyl-N-(2-methoxyethyl)-N-[1-[(2S,3R,5R,10R,13R,14S,17S)-2,3,14-trihydroxy-10,13-dimethyl-6-oxo-2,3,4,5,9,11,12,15,16,17-decahydro-1H-cyclopenta[a]phenanthren-17-yl]ethyl]butanamide], the “transcripts of the Myf5 gene” value in the test with Myf5 gene transcripts was “increase”. In addition, in the test with myogenin transcripts, the “transcript of the myogenin gene” value is reported as “increase”. Further, the “myostatin expression in the Soleus muscle” value with myostatin transcript was “comparably inhibit”. In test [1], this molecule displayed a mrna remaining at 10 µM of less than 70%.

As for `CCSCC(=O)[C@H]1CC[C@@]2(O)C3=CC(=O)[C@@H]4C[C@@H](O)[C@@H](O)C[C@]4(C)C3CC[C@]12C` (stereo partly drawn) [Compound 93, (2S,3R,5R,10R,13R,14S,17S)-17-(2-ethylsulfanylacetyl)-2,3,14-trihydroxy-10,13-dimethyl-2,3,4,5,9,11,12,15,16,17-decahydro-1H-cyclopenta[a]phenanthren-6-one], the “transcripts of the Myf5 gene” value with Myf5 gene transcripts is “increase”. Further, in the test on myogenin transcripts, the “transcript of the myogenin gene” value is given as “increase”. The “myostatin expression in the Soleus muscle” value with myostatin transcript was “comparably inhibit”. Further, in test [2], the “amount of proteins of the Soleus muscle” value was “significant increase”. For the same molecule, the mrna remaining at 10 µM in test [1] was less than 70%.

These data come from patent US10316056B2, “Chemical compounds and use thereof for improving muscular quality” (BIOPHYTIS, priority 2014, dated 2019).
